From patent publication US12486302B2, “Somatostatin receptor antagonist compounds and methods of using the same” (CDRD VENTURES INC., priority 2016, dated 2025)
*1 amine or outer side, *2 acyl side, *3 side chain or, on linkers, in order; H or OH if unused. Where a SMILES comes first, the peptide text is derived from it. Bridges are numbered along the chain shown (N, C = ends). Side-chain parts run from the residue outwards. [ ]: non-standard residue; d: D form. The star is where a group is joined. ξ: configuration not given here. dPhe(4-CONH2) = NC(=O)c1ccc(C[C@@H](N)C(=O)O)cc1; dPhe(4-NH2) = Nc1ccc(C[C@@H](N)C(=O)O)cc1; Phe(4-Cl) = N[C@@H](Cc1ccc(Cl)cc1)C(=O)O; Lys(Me2) = CN(C)CCCC[C@H](N)C(=O)O; NH(4-MeO-phenyl) = COc1ccc(N*)cc1; dCit = NC(=O)NCCC[C@@H](N)C(=O)O; Lys(Me) = CNCCCC[C@H](N)C(=O)O; Tle = CC(C)(C)[C@H](N)C(=O)O; Nicotinoyl = O=C(c1cccnc1)*; ξY = NC(Cc1ccc(O)cc1)C(=O)O; ξF = NC(Cc1ccccc1)C(=O)O; CO = O=C([*:1])[*:2]; Bz = O=C(c1ccccc1)*; NHPh = c1ccc(N*)cc1

Target: somatostatin type 2 (SSTR2) receptors (Homo sapiens, UniProt P30874)
Sequence (P30874 whole entry): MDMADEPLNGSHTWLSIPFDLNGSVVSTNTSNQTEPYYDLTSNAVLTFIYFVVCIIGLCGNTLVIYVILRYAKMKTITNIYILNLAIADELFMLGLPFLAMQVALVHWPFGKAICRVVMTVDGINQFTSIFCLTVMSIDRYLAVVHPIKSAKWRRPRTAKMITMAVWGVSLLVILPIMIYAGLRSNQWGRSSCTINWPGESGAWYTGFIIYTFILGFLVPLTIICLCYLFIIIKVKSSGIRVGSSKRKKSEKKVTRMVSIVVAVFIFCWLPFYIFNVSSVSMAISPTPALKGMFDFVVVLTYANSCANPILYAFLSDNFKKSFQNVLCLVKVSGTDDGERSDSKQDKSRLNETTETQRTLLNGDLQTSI
Assay: PathHunter β-Arrestin assay, antagonist mode, SSTR2
Assay type: cell-based
Conditions: agonist challenge at EC80
Experimental: The PathHunter® β-Arrestin assay monitors the activation of a GPCR in a homogenous, non-imaging assay format using a technology developed by DiscoveRx called Enzyme Fragment Complementation (EFC) with β-galactosidase (β-Gal) as the functional reporter. […] EA is fused to β-Arrestin and […] is fused to the GPCR of interest. When the GPCR is activated and β-Arrestin is recruited to the receptor, ED and EA complementation occurs, restoring β-Gal activity which is measured using chemiluminescent PathHunter® Detection Reagents. For antagonist determination, cells were pre-incubated with the compounds followed by agonist challenge at the EC80 concentration. Data was normalized to the maximal and minimal response observed in the presence of EC80 ligand and vehicle. Compound activity was analyzed using CBIS data analysis suite ChemInnovation, CA). Percentage inhibition was calculated using the following formula: % Inhibition=100%×(1−(mean signal of test sample-mean signal of vehicle control)/(mean signal of EC80 control-mean signal of vehicle control)). Percentage inhibition was calculated at 10 concentrations in steps on a Log 3 scale ranging from […] to 5e-5 μM. The results were plotted for IC50 calculation.

| Structure (SMILES) | IC50 |
| --- | --- |
| C[C@@H](O)[C@@H]1NC(=O)[C@H](CCCCN)NC(=O)[C@@H](Cc2ccc(C(N)=O)cc2)NC(=O)[C@H](Cc2ccc(O)cc2)NC(=O)[C@@H](NC(=O)[C@@H](N)Cc2ccc(Cl)cc2)CSSC[C@@H](C(=O)NC(Cc2ccc(O)cc2)C(N)=O)NC1=O (stereo in doubt) [Compound 39, H-Cpa-cyclo[Cys- Tyr-D-(4- carbamoyl)Phe- Lys-Thr-Cys]- DTyr-NH2] | > 1000 nM |
| CC(O)[C@@H]1NC(=O)[C@H](CCCCN)NC(=O)[C@@H](Cc2ccc(C(N)=O)cc2)NC(=O)[C@H](Cc2ccc(O)cc2)NC(=O)[C@H](NC(=O)[C@@H](N)Cc2ccc(Cl)cc2)CNC(=O)SC[C@@H](C(=O)N[C@H](Cc2ccc(O)cc2)C(N)=O)NC1=O (stereo in doubt) [Compound 61, H-Cpa-cyclo[Dap- Tyr-DPhe (4-CONH2)- Lys-Thr-Cys]- DTyr-NH2] | > 1000 nM |
| C[C@@H](O)[C@@H]1NC(=O)[C@H](CCCCN)NC(=O)[C@@H](Cc2ccc(C(N)=O)cc2)NC(=O)[C@H](Cc2ccc(O)cc2)NC(=O)[C@@H](NC(=O)[C@@H](N)Cc2ccc(Cl)cc2)CC=CC[C@@H](C(=O)N[C@H](Cc2ccc(O)cc2)C(N)=O)NC1=O (stereo in doubt) [Compound 68] | > 1000 nM |
| CNCCCC[C@@H]1NC(=O)[C@@H](Cc2ccc(NC(=O)Nc3ccccc3)cc2)NC(=O)[C@H](Cc2ccc(O)cc2)NC(=O)[C@H](NC(=O)[C@@H](N)Cc2ccc(Cl)cc2)CSSC[C@@H](C(=O)NC(Cc2ccc(O)cc2)C(N)=O)NC(=O)[C@H]([C@@H](C)O)NC1=O (stereo partly drawn) [Compound 25, H-Cpa-cyclo[D-Cys-Tyr-D-Phe(4-phenylureido)-Lys(N^ε-Me)-Thr-Cys]-D-Tyr-NH2] (H-[Phe(4-Cl)][dC]Y[dPhe(4-NH2)]([CO-NHPh])[Lys(Me)]TC[ξY]-NH2; disulfide 2-7) | 2.32 nM |
| CC(=O)NCCCC[C@@H]1NC(=O)[C@@H](Cc2ccc(C(N)=O)cc2)NC(=O)[C@H](Cc2ccc(O)cc2)NC(=O)[C@H](NC(=O)[C@@H](N)Cc2ccc(Cl)cc2)CSSC[C@@H](C(=O)NC(Cc2ccc(O)cc2)C(N)=O)NC(=O)[C@H]([C@@H](C)O)NC1=O (stereo partly drawn) [Compound 26, H-Cpa-cyclo[DCys- Tyr-D-(4- carbamoyl)Phe-(N- Acetyl)Lys-Thr-Cys]- DTyr-NH2] (H-[Phe(4-Cl)][dC]Y[dPhe(4-CONH2)]K(Ac)TC[ξY]-NH2; disulfide 2-7) | > 1000 nM |
| C[C@@H](O)[C@@H]1NC(=O)[C@H](CCCCN)NC(=O)[C@@H](Cc2ccc(NC(=O)c3ccccc3)cc2)NC(=O)[C@H](Cc2ccc(O)cc2)NC(=O)[C@H](NC(=O)[C@@H](N)Cc2ccc(Cl)cc2)CSSC[C@@H](C(=O)NC(Cc2ccc(O)cc2)C(N)=O)NC1=O (stereo partly drawn) [Compound 27, H-Cpa-cyclo[DCys- Tyr-D-(4- Benzamidophenyl) Phe-Lys-Thr- Cys]-DTyr-NH2] (H-[Phe(4-Cl)][dC]Y[dPhe(4-NH2)](Bz)KTC[ξY]-NH2; disulfide 2-7) | 34.7 nM |
| COc1ccc(NC(=O)Nc2ccc(C[C@H]3NC(=O)[C@H](Cc4ccc(O)cc4)NC(=O)[C@H](NC(=O)[C@@H](N)Cc4ccc(Cl)cc4)CSSC[C@@H](C(=O)N[C@H](Cc4ccc(O)cc4)C(N)=O)NC(=O)[C@H]([C@@H](C)O)NC(=O)[C@H](CCCCN)NC3=O)cc2)cc1 [Compound 28, H-Cpa-cyclo[DCys- Tyr-D-(4-(4- methoxyphenyl) ureido) Phe-Lys-Thr-Cys]- DTyr-NH2] (H-[Phe(4-Cl)][dC]Y[dPhe(4-NH2)]([CO-NH(4-MeO-phenyl)])KTC[dY]-NH2; disulfide 2-7) | 104 nM |
| C[C@@H](O)[C@@H]1NC(=O)[C@H](CCCNC(=N)N)NC(=O)[C@@H](Cc2ccc(C(N)=O)cc2)NC(=O)[C@H](Cc2ccc(O)cc2)NC(=O)[C@H](NC(=O)[C@@H](N)Cc2ccc(Cl)cc2)CSSC[C@@H](C(=O)NC(Cc2ccc(O)cc2)C(N)=O)NC1=O (stereo partly drawn) [Compound 29, H-Cpa-cyclo[DCys- Tyr-D-(4- carbamoyl)Phe-Arg- Thr-Cys]-DTyr-NH2] (H-[Phe(4-Cl)][dC]Y[dPhe(4-CONH2)]RTC[ξY]-NH2; disulfide 2-7) | 398 nM |
| CNCCCC[C@@H]1NC(=O)[C@@H](CCCCNC(=O)c2cccnc2)NC(=O)[C@H](Cc2ccc(O)cc2)NC(=O)[C@H](NC(=O)[C@@H](N)Cc2ccc(Cl)cc2)CSSC[C@@H](C(=O)NC(Cc2ccc(O)cc2)C(N)=O)NC(=O)[C@H]([C@@H](C)O)NC1=O (stereo partly drawn) [Compound 30, H-Cpa-cyclo[D-Cys-Tyr-D-Lys(N^ε-nicotinoyl)-Lys(N^ε-Me)-Thr-Cys]-D-Tyr-NH2] (H-[Phe(4-Cl)][dC]Y[dK](Nicotinoyl)[Lys(Me)]TC[ξY]-NH2; disulfide 2-7) | 177 nM |
| CNCCCC[C@@H]1NC(=O)[C@@H](CCCNC(N)=O)NC(=O)[C@H](Cc2ccc(O)cc2)NC(=O)[C@H](NC(=O)[C@@H](N)Cc2ccc(Cl)cc2)CSSC[C@@H](C(=O)N[C@H](Cc2ccc(O)cc2)C(N)=O)NC(=O)[C@H]([C@@H](C)O)NC1=O [Compound 31, H-Cpa-cyclo[DCys- Tyr-D-Cit- (N—Me)Lys-Thr- Cys]-DTyr-NH2] (H-[Phe(4-Cl)][dC]Y[dCit][Lys(Me)]TC[dY]-NH2; disulfide 2-7) | 70.4 nM |
| C[C@@H](O)[C@@H]1NC(=O)[C@H](CCCCN(C)C)NC(=O)[C@@H](Cc2ccc(C(N)=O)cc2)NC(=O)[C@H](Cc2ccc(O)cc2)NC(=O)[C@H](NC(=O)[C@@H](N)Cc2ccc(Cl)cc2)CSSC[C@@H](C(=O)NC(Cc2ccc(O)cc2)C(N)=O)NC1=O (stereo partly drawn) [Compound 32, H-Cpa-cyclo[D-Cys-Tyr-D-Phe(4-carbamoyl)-Lys(N^ε-diMe)-Thr-Cys]-D-Tyr-NH2] (H-[Phe(4-Cl)][dC]Y[dPhe(4-CONH2)][Lys(Me2)]TC[ξY]-NH2; disulfide 2-7) | 2.46 nM |
| CC(C)[C@@H]1NC(=O)[C@H](CCCCN)NC(=O)[C@@H](Cc2ccc(C(N)=O)cc2)NC(=O)[C@H](Cc2ccc(O)cc2)NC(=O)[C@H](NC(=O)[C@@H](N)Cc2ccc(Cl)cc2)CSSC[C@@H](C(=O)NC(Cc2ccc(O)cc2)C(N)=O)NC1=O (stereo partly drawn) [Compound 33, H-Cpa-cyclo[DCys- Tyr-D-4- (carbamoyl)Phe-Lys- Val-Cys]-DTyr-NH2] (H-[Phe(4-Cl)][dC]Y[dPhe(4-CONH2)]KVC[ξY]-NH2; disulfide 2-7) | 56 nM |
| CC(C)(C)[C@@H]1NC(=O)[C@H](CCCCN)NC(=O)[C@@H](Cc2ccc(C(N)=O)cc2)NC(=O)[C@H](Cc2ccc(O)cc2)NC(=O)[C@H](NC(=O)[C@@H](N)Cc2ccc(Cl)cc2)CSSC[C@@H](C(=O)NC(Cc2ccc(O)cc2)C(N)=O)NC1=O (stereo partly drawn) [Compound 34, H-Cpa-cyclo[DCys- Tyr-D-4- (carbamoyl)Phe-Lys- tBu-Gly-Cys]-DTyr- NH2] (H-[Phe(4-Cl)][dC]Y[dPhe(4-CONH2)]K[Tle]C[ξY]-NH2; disulfide 2-7) | 43.4 nM |
| C[C@@H](O)[C@@H]1NC(=O)[C@H](CCCCN)NC(=O)[C@@H](Cc2ccc(C(N)=O)cc2)NC(=O)[C@H](Cc2ccccc2)NC(=O)[C@H](NC(=O)[C@@H](N)Cc2ccc(Cl)cc2)CSSC[C@@H](C(=O)NC(Cc2ccc(O)cc2)C(N)=O)NC1=O (stereo partly drawn) [Compound 35, H-Cpa-cyclo[DCys- Phe-D-(4- carbamoyl)Phe-Lys- Thr-Cys]-DTyr-NH2] (H-[Phe(4-Cl)][dC]F[dPhe(4-CONH2)]KTC[ξY]-NH2; disulfide 2-7) | 35.9 nM |
| C[C@@H](O)[C@@H]1NC(=O)[C@H](CCCCN)NC(=O)[C@@H](Cc2ccc(C(N)=O)cc2)NC(=O)[C@H](Cc2ccc(Cl)cc2)NC(=O)[C@H](NC(=O)[C@@H](N)Cc2ccc(Cl)cc2)CSSC[C@@H](C(=O)NC(Cc2ccc(O)cc2)C(N)=O)NC1=O (stereo partly drawn) [Compound 36, H-Cpa-cyclo[DCys- Cpa-D-(4- carbamoyl)Phe-Lys- Thr-Cys]-DTyr-NH2] (H-[Phe(4-Cl)][dC][Phe(4-Cl)][dPhe(4-CONH2)]KTC[ξY]-NH2; disulfide 2-7) | 28.7 nM |
| NCCCC[C@@H]1NC(=O)[C@@H](Cc2ccc(C(N)=O)cc2)NC(=O)[C@H](Cc2ccc(O)cc2)NC(=O)[C@H](NC(=O)[C@@H](N)Cc2ccc(Cl)cc2)CSSC[C@@H](C(=O)NC(Cc2ccc(O)cc2)C(N)=O)NC(=O)[C@H](CO)NC1=O (stereo partly drawn) [Compound 37, H-Cpa-cyclo[DCys- Tyr-D-(4- carbamoyl)Phe-Lys- Ser-Cys]-DTyr-NH2] (H-[Phe(4-Cl)][dC]Y[dPhe(4-CONH2)]KSC[ξY]-NH2; disulfide 2-7) | 10.6 nM |
| COc1ccc(C[C@@H]2NC(=O)[C@H](NC(=O)[C@@H](N)Cc3ccc(Cl)cc3)CSSC[C@@H](C(=O)NC(Cc3ccc(O)cc3)C(N)=O)NC(=O)[C@H]([C@@H](C)O)NC(=O)[C@H](CCCCN)NC(=O)[C@@H](Cc3ccc(C(N)=O)cc3)NC2=O)cc1 (stereo partly drawn) [Compound 38, H-Cpa-cyclo[DCys- 4-OMe-Phe-D-(4- carbamoyl)Phe-Lys- Thr-Cys]-DTyr-NH2] (H-[Phe(4-Cl)][dC]Y(Me)[dPhe(4-CONH2)]KTC[ξY]-NH2; disulfide 2-7) | 24.4 nM |
| C[C@@H](O)[C@@H]1NC(=O)[C@H](CCCCN)NC(=O)[C@@H](Cc2ccc(C(N)=O)cc2)NC(=O)[C@H](Cc2ccc(O)cc2)NC(=O)[C@H](NC(=O)[C@@H](N)Cc2ccc(Cl)cc2)CSSC[C@@H](C(=O)NC(Cc2ccccc2)C(N)=O)NC1=O (stereo partly drawn) [Compound 40, H-Cpa-cyclo[DCys- Tyr-D-(4- carbamoyl)Phe-Lys- Thr-Cys]-DPhe-NH2] (H-[Phe(4-Cl)][dC]Y[dPhe(4-CONH2)]KTC[ξF]-NH2; disulfide 2-7) | 16.2 nM |
| C[C@@H](O)[C@@H]1NC(=O)[C@H](CCCCN)NC(=O)[C@@H](Cc2ccc(C(N)=O)cc2)NC(=O)[C@H](Cc2ccccc2)NC(=O)[C@H](NC(=O)[C@@H](N)Cc2ccc(Cl)cc2)CSSC[C@@H](C(=O)NC(Cc2ccccc2)C(N)=O)NC1=O (stereo partly drawn) [Compound 41, H-Cpa-cyclo[DCys- Phe-D-(4- carbamoyl)Phe-Lys- Thr-Cys]-DPhe-NH2] (H-[Phe(4-Cl)][dC]F[dPhe(4-CONH2)]KTC[ξF]-NH2; disulfide 2-7) | 24.4 nM |
